Among the data in ChEMBL document CHEMBL4190222, “Sulawesins A-C, Furanosesterterpene Tetronic Acids That Inhibit USP7, from a Psammocinia sp. Marine Sponge” (J Nat Prod, 2017) are inhibition and IC50 values, retold here.

Molecules are shown by their SMILES. Activity calls are given as the source filed them. The rule behind the calls is not given here.

The term IC50 denotes the concentration at which inhibition is half-maximal.

Experiment [1] addresses T1, Ubiquitin carboxyl-terminal hydrolase 7 (Homo sapiens, UniProt Q93009). The experiment is described as follows: Inhibition of recombinant His6-tagged human USP7 expressed in insect expression system […] using ubiquitin-Rh110 as substrate preincubated for 30 mins followed by substrate addition measured after 180 mins by fluorescence assay.
Target sequence in this assay (Q93009 whole entry, looked up): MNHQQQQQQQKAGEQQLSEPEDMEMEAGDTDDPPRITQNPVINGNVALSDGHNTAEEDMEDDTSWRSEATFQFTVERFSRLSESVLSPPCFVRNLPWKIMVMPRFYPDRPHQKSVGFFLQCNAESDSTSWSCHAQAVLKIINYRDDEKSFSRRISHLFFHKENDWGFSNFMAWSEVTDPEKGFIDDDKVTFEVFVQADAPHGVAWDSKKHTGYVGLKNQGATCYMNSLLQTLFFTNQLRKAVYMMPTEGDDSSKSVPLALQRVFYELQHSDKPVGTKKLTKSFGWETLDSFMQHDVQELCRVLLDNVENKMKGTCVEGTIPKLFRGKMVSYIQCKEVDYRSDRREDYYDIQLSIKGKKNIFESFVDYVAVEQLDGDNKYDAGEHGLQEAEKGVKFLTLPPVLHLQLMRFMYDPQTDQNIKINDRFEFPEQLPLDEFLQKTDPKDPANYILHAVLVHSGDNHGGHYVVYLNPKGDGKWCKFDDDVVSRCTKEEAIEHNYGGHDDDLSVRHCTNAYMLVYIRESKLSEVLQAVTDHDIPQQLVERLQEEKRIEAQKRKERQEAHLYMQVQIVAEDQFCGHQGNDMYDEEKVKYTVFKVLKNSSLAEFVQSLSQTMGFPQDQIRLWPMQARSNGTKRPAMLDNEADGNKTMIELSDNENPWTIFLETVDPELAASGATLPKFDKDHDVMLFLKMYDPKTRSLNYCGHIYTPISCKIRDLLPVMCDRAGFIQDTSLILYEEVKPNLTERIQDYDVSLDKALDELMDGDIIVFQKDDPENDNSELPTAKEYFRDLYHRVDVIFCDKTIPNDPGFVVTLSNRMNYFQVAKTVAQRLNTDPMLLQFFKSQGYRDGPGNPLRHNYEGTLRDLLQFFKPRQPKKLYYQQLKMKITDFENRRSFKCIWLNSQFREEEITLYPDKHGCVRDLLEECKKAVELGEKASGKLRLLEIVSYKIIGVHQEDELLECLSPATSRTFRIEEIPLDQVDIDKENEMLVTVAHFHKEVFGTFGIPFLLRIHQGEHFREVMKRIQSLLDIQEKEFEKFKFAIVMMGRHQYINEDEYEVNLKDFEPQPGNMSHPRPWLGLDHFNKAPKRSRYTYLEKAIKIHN
The target of experiment [2] is T1, Ubiquitin carboxyl-terminal hydrolase 7. The experiment is described as follows: Inhibition of recombinant His6-tagged human USP7 expressed in insect expression system using ubiquitin-Rh110 as substrate preincubated for 30 mins followed by substrate addition measured after 180 mins by fluorescence assay.
Target sequence in this assay (Q93009 whole entry): as the sequence (Q93009 whole entry, looked up) above

With `CCN1C(=O)C=CC1=O`, the inhibition result in experiment [1] is “Active”.
Turning to `CC1=C(O)/C(=C/C(C)CC/C=C(/C)CCCc2coc(Cc3ccoc3)c2)OC1=O` (mixture of isomers), the IC50 in experiment [2] is 3.5 µM.
Consider `CC1=C(O)/C(=C/C(C)CCC/C(C)=C/CCc2coc(Cc3ccoc3)c2)OC1=O` (racemic), for which the IC50 in experiment [2] is 2.7 µM.
For `CC1=C(O)/C(=C/C(C)CCC/C(C)=C/CCC2=CC(=O)[C@@H](c3ccoc3)[C@@H]2O)OC1=O` (mixture of isomers), the IC50 in experiment [2] stood at 2.8 µM.
Consider `CC1=C(O)/C(=C/C(C)CC/C=C(/C)CCCC2=CC(=O)[C@@H](c3ccoc3)[C@@H]2O)OC1=O` (mixture of isomers), for which, in experiment [2], the half-inhibitory concentration (IC50) came out at 4.6 µM.
